Experiments:
Assay in all cases: relative viability (nuclei count vs DMSO), 5 days (fraction); higher = more cells survive
[1] = compound: CN(C)CC1=CC(=CC=C1)N=C(C2=CC=CC=C2)C3=C(NC4=C3C=CC(=C4)C(=O)N(C)C)O + NC(=O)Nc1cc(-c2cccc(F)c2)sc1C(=O)N[C@H]1CCCNC1 [AZD7762] (partner 0.2 µM)
How it was run: (§1)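 Lung cancer cell lines, seeded in 1536-well plates, were treated the following day by pin tool with a single drug or with five library-drug doses (not always all listed) in √10 steps on top of a fixed anchor-drug dose. Cells were fixed and nuclei stained in one step after 5 days, and nuclei were counted. Relative viability is the nuclei count for treated wells divided by that for vehicle wells, reported as medians of duplicate plates.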

[2] = compound: CN(C)CC1=CC(=CC=C1)N=C(C2=CC=CC=C2)C3=C(NC4=C3C=CC(=C4)C(=O)N(C)C)O + N=C(N)NC(=N)NCCc1ccccc1 [Phenformin] (partner 250 µM)
How it was run: as §1

[3] = compound: CN(C)CC1=CC(=CC=C1)N=C(C2=CC=CC=C2)C3=C(NC4=C3C=CC(=C4)C(=O)N(C)C)O + CS(=O)(=O)N1CCN(Cc2cc3nc(-c4cccc5[nH]ncc45)nc(N4CCOCC4)c3s2)CC1 [Pictilisib] (partner 1 µM)
How it was run: as §1

[4] = compound: CN(C)CC1=CC(=CC=C1)N=C(C2=CC=CC=C2)C3=C(NC4=C3C=CC(=C4)C(=O)N(C)C)O + Cc1nc(NC(=O)N2CCC[C@H]2C(N)=O)sc1-c1ccnc(C(C)(C)C(F)(F)F)c1 [Alpelisib] (partner 2 µM)
How it was run: as §1

Cell Line | relative viability ([1]; first compound 0.08 µM) | relative viability ([1]; first compound 0.253 µM) | relative viability ([1]; first compound 0.8 µM) | relative viability ([1]; first compound 2.53 µM) | relative viability ([1]; first compound 8 µM) | relative viability ([2]; first compound 0.08 µM) | relative viability ([2]; first compound 0.253 µM) | relative viability ([2]; first compound 0.8 µM) | relative viability ([2]; first compound 2.53 µM) | relative viability ([2]; first compound 8 µM) | relative viability ([3]; first compound 0.08 µM) | relative viability ([3]; first compound 0.253 µM) | relative viability ([3]; first compound 0.8 µM) | relative viability ([3]; first compound 2.53 µM) | relative viability ([3]; first compound 8 µM) | relative viability ([4]; first compound 0.08 µM) | relative viability ([4]; first compound 0.253 µM) | relative viability ([4]; first compound 0.8 µM) | relative viability ([4]; first compound 2.53 µM) | relative viability ([4]; first compound 8 µM)
201T | 0.675 | 0.6 | 0.627 | 0.607 | 0.525 | 0.437 | 0.449 | 0.416 | 0.428 | 0.41 | 0.674 | 0.709 | 0.681 | 0.662 | 0.675 | 1 | 0.968 | 0.977 | 0.962 | 0.955
A-427 | 0.75 | 0.666 | 0.712 | 0.676 | 0.631 | 0.378 | 0.385 | 0.308 | 0.257 | 0.266 | 0.751 | 0.693 | 0.902 | 0.803 | 0.706 | 1.04 | 1.04 | 1.09 | 1.03 | 1.07
ABC-1 | 0.805 | 1.11 | 0.81 | 0.903 | 0.676 | 0.205 | 0.277 | 0.231 | 0.207 | 0.243 | 0.613 | 0.811 | 0.599 | 0.643 | 0.64 | 1.14 | 1.03 | 0.957 | 0.896 | 1.09
BEN | 0.701 | 0.71 | 0.695 | 0.728 | 0.745 | 0.233 | 0.274 | 0.238 | 0.223 | 0.267 | 0.664 | 0.587 | 0.584 | 0.55 | 0.509 | 1.02 | 0.947 | 1.08 | 0.928 | 0.82
CAL-12T | 0.627 | 0.668 | 0.58 | 0.647 | 0.687 | 0.55 | 0.563 | 0.529 | 0.555 | 0.543 | – | 0.74 | 0.482 | – | 0.459 | 1.19 | 1.29 | 1.18 | 1.11 | 1.15
COR-L23 | – | – | – | – | – | 0.495 | 0.413 | 0.402 | 0.423 | 0.421 | 0.811 | 0.709 | 0.858 | 0.637 | 0.656 | 0.796 | 0.757 | 0.818 | 0.632 | 0.575
COR-L 105 | – | – | – | – | – | 0.464 | 0.546 | 0.427 | 0.455 | 0.478 | 0.356 | 0.381 | 0.39 | 0.377 | 0.332 | 0.844 | 0.892 | 1.01 | 0.813 | 0.808
Calu-6 | – | – | – | – | – | – | – | – | – | – | 0.899 | 0.872 | 0.932 | 0.877 | 0.852 | 1.05 | 1.11 | 1.06 | 0.971 | 0.93
ChaGo-K-1 | 0.832 | 0.824 | 0.902 | 0.822 | 0.896 | 0.495 | 0.507 | 0.479 | 0.436 | 0.433 | 0.814 | 1.03 | 0.967 | – | 0.879 | – | – | – | – | –
EBC-1 | – | – | – | – | – | – | – | – | – | – | 0.441 | 0.456 | 0.416 | 0.365 | 0.318 | 0.958 | 0.891 | 1.06 | 0.917 | 0.816

Source: the supplement of paper PMC10307832
